Measurements taken from US20070202079A1, “Therapeutic compositions and methods useful in modulating protein tyrosine phosphatases” (priority 2006, published 2007).
“And” between values parts separate entries of the source, which are not always exact repeats. Equal values may be shown once. “Also recorded” adds a separate entry of the source.

Legend:
[1] = system: NB4 cells; assay: NB4 growth, cell cycle and Annexin V; type: cell-based, human; details: sodium stibogluconate 250 μg/ml or ATRA 1 μM, 3 days
Experimental: The NB4 cell line (Lanotte et al., Blood 77, 1080 (1991)) was a gift from Dr. Dan Lindner of the Cleveland Clinic Foundation. […] and U937 cell lines were purchased from American Type Culture Collection (Rockville, Md.). These human […] cell lines were maintained in RPMI 1640 medium supplemented with 10% fetal calf serum (FCS). For cell proliferation assays, cells were cultured at 37° C. in 10% FCS medium containing various amounts of sodium stibogluconate for 6 days. The cell numbers in the cultures were determined by an MTT assay as described previously in Mosmann, J. Immunol. Methods 65, 55 (1983).
The cell cycle was analyzed by flow cytometry after 3 days of culture of NB4 cells in the absence or presence of sodium stibogluconate (250 μg/ml) or ATRA (1 μM). Briefly, the cells were fixed in cold ethanol and incubated for 30 minutes at 4° C. in the dark with a solution of […] propidium iodide, 1 mg/ml RNase and 0.1% NP-40. Analysis was performed immediately after staining using the CELLFIT program (Becton Dickinson, Mountain View, Calif.).
Annexin V staining of exposed membrane phospholipid phosphatidylserine (PS) was done using the Annexin V assay kit (Pharmingen, San Diego, Calif.). Briefly, NB4 cells were cultured in the 10% FCS RPMI 1640 medium in the absence or presence of sodium stibogluconate (250 μg/ml) or ATRA (1 μM) for 3 days. Cells were then washed in PBS twice and stained in binding buffer (10 mM Hepes, pH 7.4; 140 mM NaCl; 2.5 mM CaCl2) containing Annexin V-FITC and propidium iodide for 15 min. The reaction was stopped by adding 10 volumes of binding buffer and analyzed by FACS (Becton Dickinson Facsvantage).

[2] = system: U937 cells; assay: U937 differentiation (NBT reduction); type: cell-based, human; details: day 6
Experimental: (§1) Differentiation of AML cell lines was assessed by their ability to produce superoxide as measured by reduction of NBT to formazan and by analysis of expression of CD11b surface marker by flow cytometry. For NBT reduction, each cell suspension was mixed with an equal volume of solution containing 1 mg/ml of NBT (Sigma) and 2.5 μg/ml of TPA for 30 minutes at 37° C. After incubation, cells containing the purple formazan deposits and cells devoid of NBT-reducing activity (white cells) in each sample were determined by counting 200 cells under microscope. Data is expressed as a percentage based on the following ratio: purple cells/purple+white cells. For analysis of cell surface antigens, cells were exposed to phycoerythrin (PE)-conjugated murine anti-human CD11b (DAKO Corp., Carpinteria, Calif.). Analysis of fluorescence was performed on a FACScan flow cytometer (Beckton Dickinson, Mountain View, Calif.).

[3] = system: NB4 cells; assay: NB4 differentiation (NBT reduction, CD11b); type: cell-based, human
Experimental: as §1

[4] = system: HL-60 cells; assay: HL-60 differentiation (NBT reduction); type: cell-based, human; details: day 6
Experimental: as §1

[5] = system: Renca tumors; assay: Renca tumors in Balb/c mice; type: in vivo; details: two weeks; SSG 12 mg/daily i.m., i.p.
Experimental: Balb/c and athymic nude Balb/c mice (10 weeks old, female, Taconic Farms, Germantown, N.Y.) were inoculated (s.c.) at the flanks with Renca cells (10^6 cells/site). Four days post-inoculation, the mice were subject to no treatment (Control) or treatment with IL-2 ([…]/daily for 5 days, i.p.), SSG (12 mg/daily, i.m. at hip regions) or the combination of the two agents for two weeks. […] The dose of SSG was similar to the effective daily dose of the drug for the treatment of murine leishmaniasis (Murray, H. W., J. D. Berman, and S. D. Wright. 1988. Immunochemotherapy for intracellular Leishmania donovani infection: gamma interferon plus pentavalent antimony. J Infect Dis 157:973). Tumor volume was measured during the study period and calculated using the formula for a prolate spheroid (V=4/3×a2b) (Lindner, D. J., E. C. Borden, and D. V. Kalvakolanu. 1997. Synergistic antitumor effects of a combination of interferons and retinoic acid on human tumor cells in vitro and in vivo. Clin Cancer Res 3:931). Student's t test was used for assessing the significance of tumor volume differences among differential treatment groups. Mouse viability (daily) and body weights (weekly) were also recorded during the study period. At the end of the study, Renca tumors and major internal organs (heart, kidney, liver, lung and spleen) were harvested for histology and immunohistochemistry analysis.

[6] = system: tumor-infiltrating and spleen immune cells (F4/80+, CD4+, CD8+); assay: immunohistochemistry of Renca tumors and spleen; type: in vivo, Balb/c mice; details: Renca tumors, end of treatment
Experimental: Major internal organs and Renca tumors harvested from mice were fixed in 10% formalin or snap frozen in liquid nitrogen. H & E-stained tissue sections of the fixed samples were prepared and evaluated by microscopy as described previously (Yi, T., M. K. Pathak, D. J. Lindner, M. E. Ketterer, C. Farver, and E. C. Borden. 2002. Anticancer activity of sodium stibogluconate in synergy with IFNs. J Immunol 169:5978). Preparation of frozen tissue sections and immunohistochemistry were performed following established procedures (Joliat, M. J., P. A. Lang, B. L. Lyons, L. Burzenski, M. A. Lynes, T. Yi, J. P. Sundberg, and L. D. Shultz. 2002. Absence of CD5 dramatically reduces progression of pulmonary inflammatory lesions in SHP-1 protein-tyrosine phosphatase-deficient ‘viable motheaten’ mice. J Autoimmun 18:105). The antibodies used for immunohistochemistry were anti-CD4 (rat mAb, clone GK1.5, BD Biosciences, Franklin Lakes, N.J.), anti-CD8 (rat mAb, clone 53-6.7.5, BD Biosciences, Franklin Lakes, N.J.), anti-F4/80 (rat mAb, clone A3-1, Serotec, Oxford, UK) and anti-Asialo GM1 (rabbit polyclonal, Cedarlane, Hornby, Canada). […] Tissue sections of 2 mice/group were evaluated. The number of immune cells was semi-quantified based on the following scheme: […], 0-1 positive cells/40×field; +, 2-5 positive cells/40×field; ++, 6-10 positive cells/40×field, etc.

[7] = system: Baf3 cells; assay: Baf3 cell proliferation assay; type: cell-based, murine
Experimental: The murine hematopoietic cell line Baf3 was maintained in RPMI 1640 medium supplemented with 10% fetal calf serum (FCS) and murine IL-3 (20 units/ml) as described previously in Damen et al., J. Biol. Chem. 270, 23402 (1995). Human myeloid cell line TF-1 was maintained in RPMI 1640 supplemented with 10% FCS and 40 ng/ml of recombinant human GM-CSF as described previously in Thomassen et al., Clin. Immunol. 95, 85 (2000). For cell proliferation assays, cells were washed in 10% FCS medium twice, resuspended in 10% FCS medium, incubated at 37° C. for 16 hours, and then cultured at 37° C. in 10% FCS medium containing various amounts of cytokines, sodium stibogluconate, or potassium antimonyl tartrate for 3-6 days as indicated. The cell numbers in proliferation assays were determined by an MTT assay or by microscopic cell counting as indicated.

[8] = target: T1, SHP-1 (Mus musculus, UniProt P29351); assay: in vitro PTPase assay, GST/SHP-1; type: biochemical; details: 1-1,000 μg/ml
T1 construct: made in house
Experimental: In vitro PTPase activities were measured using the commercial protein tyrosine phosphatase assay kit (Upstate Biotechnology, Inc. (“UBI”)) following established procedure known to one of skill in the art. […] Briefly, 0.01 μg of GST/PTPase fusion proteins was incubated in 50 μl of Tris buffer (10 mM Tris, pH 7.4) containing different concentrations of inhibitors or chemicals (0-1,000 μg/ml) at 22° C. for 10 minutes, followed by addition of 0.2 mM of the phosphotyrosine peptide and incubation at 22° […] 100 μl of Malachite Green solution was added and incubated for 5 minutes, and the absorbance at 660 nm was measured after 5 minutes.
To assess the reversibility of inhibition of SHP-1 by PTPase inhibitors, GST/SHP-1 fusion protein bound on glutathione beads were pre-incubated in cold Tris buffer or Tris buffer containing the PTPase inhibitors at 4° C. for 30 minutes. The beads were then either subjected to in vitro PTPase assays or washed 3 times in Tris buffer then subjected to in vitro PTPase assays.
Briefly, individual PTPases (0.1 μg/reaction) in 50 μL of PTPase buffer (50 mM Tris, pH 7.4) were incubated at 22° C. for 10 minutes or as indicated in the absence or presence of inhibitory compounds. Substrates (0.2 mM phosphotyrosine peptide) were then added and allowed to react at 22° C. for 18 hrs. PTPase activity of individual reactions was measured by adding 100 μL of malachite green solution (UBI) and then quantifying the amounts of free phosphate cleaved by the PTPase from the peptide substrate by spectrometry (OD660 nm). […] Relative PTPase activities were calculated based on the formula: (PTPase activity in the presence of an inhibitory compound/PTPase activity in the absence of the compound)× 100%. To assess the reversibility of PTPase inhibition, GST fusion proteins of the PTPases bound on glutathione beads (Pharmacia) were pre-incubated with cold Tris buffer (50 mM Tris, pH 7.0) or Tris buffer containing the inhibitor at 4° C. for 30 minutes. The beads were then washed three times in cold Tris buffer or not washed prior to subjecting to in vitro PTPase assays.

[9] = system: Jak2/Stat5 tyrosine phosphorylation in Baf3 cells; assay: cellular protein tyrosine phosphorylation in Baf3 cells, Western blotting; type: cell-based, murine
Experimental: For induction of cellular protein phosphorylation by sodium stibogluconate or pervanadate, Baf3 cells were incubated in 0.1% FCS-RPMI 1640 medium at 37° C. for 16 hours. The cells were then washed twice in RPMI 1640 medium and incubated with sodium stibogluconate or pervanandate (0.1 mM) for various times prior to termination by lysing cells in cold lysis buffer (50 mM Tris, pH 7.4; 150 mM NaCl; 0.2 mM Na3VO4; 20 mm NaF; 1% Nonidet P-40; 2 mM PMSF; 20 μg/ml of Aprotinin and 1 mM of sodium molybdic acid). To determine the effect of sodium stibogluconate or potassium antimonyl tartrate on IL-3-induced Jak/Stat phosphorylation, Baf3 cells were deprived of the growth factor for 16 hours in 0.1% FCS RPMI 1640 medium and then incubated with or without sodium stibogluconate or potassium antimonyl tartrate for 10 minutes. IL-3 was next added to the cell suspension and incubated for various times. The Cells were then harvested and lysed in cold lysis buffer at 4° C. for 45 minutes. Total cell lysates (TCL) were separated in SDS-PAGE gels, blotted onto nitrocellulose membrane (Schleicher & Schuell), probed with specific antibodies and detected using an enhanced chemiluminescence kit (ECL, Amersham, Arlington Heights, Ill.).

[10] = target: T2, PTP1B (Homo sapiens, UniProt P18031); assay: in vitro PTPase assay, GST/PTP1B; type: biochemical; details: 1-1,000 μg/ml
T2 construct: purchased Upstate Biotechnology Inc. (Lake Placid, N.Y.)
Experimental: In vitro PTPase activities were measured using the commercial protein tyrosine phosphatase assay kit (Upstate Biotechnology, Inc. (“UBI”)) following established procedure known to one of skill in the art. This assay measures the in vitro dephosphorylation of a synthetic phosphotyrosine peptide of the sequence Arg-Arg-Leu-Ile-Glu-Asp-Ala-Gle-T- -yr-Ala-Ala-Arg-Gly, wherein the tyrosine is phosphorylated (SEQ ID NO: 3). Briefly, 0.01 μg of GST/PTPase fusion proteins was incubated in 50 μl of Tris buffer (10 mM Tris, pH 7.4) containing different concentrations of inhibitors or chemicals (0-1,000 μg/ml) at 22° C. for 10 minutes, followed by addition of 0.2 mM of the phosphotyrosine peptide and incubation at 22° C. for 18 hours. 100 μl of Malachite Green solution was added and incubated for 5 minutes, and the absorbance at 660 nm was measured after 5 minutes.
In vitro PTPase assays were used to determine the effects of levamisole (Sigma), pentamidine (American Pharmaceutical Partners, Inc.), and ketoconazole (Sigma) on recombinant PTPases, following established procedures (Pathak et al., J. Immunol. 167, 3391 (2001); Pathak et al., Leukemia 16, 2285 (2002), Yi et al., J. Immunol. 169, 5978 (2002)) using a synthetic phosphotyrosine peptide or DiFMUP as the substrate as detailed above in section I.A.2.

[11] = sodium stibogluconate 400 μg/ml, GM-CSF 25 ng/ml, ATRA

T1 sequence (P29351 whole entry): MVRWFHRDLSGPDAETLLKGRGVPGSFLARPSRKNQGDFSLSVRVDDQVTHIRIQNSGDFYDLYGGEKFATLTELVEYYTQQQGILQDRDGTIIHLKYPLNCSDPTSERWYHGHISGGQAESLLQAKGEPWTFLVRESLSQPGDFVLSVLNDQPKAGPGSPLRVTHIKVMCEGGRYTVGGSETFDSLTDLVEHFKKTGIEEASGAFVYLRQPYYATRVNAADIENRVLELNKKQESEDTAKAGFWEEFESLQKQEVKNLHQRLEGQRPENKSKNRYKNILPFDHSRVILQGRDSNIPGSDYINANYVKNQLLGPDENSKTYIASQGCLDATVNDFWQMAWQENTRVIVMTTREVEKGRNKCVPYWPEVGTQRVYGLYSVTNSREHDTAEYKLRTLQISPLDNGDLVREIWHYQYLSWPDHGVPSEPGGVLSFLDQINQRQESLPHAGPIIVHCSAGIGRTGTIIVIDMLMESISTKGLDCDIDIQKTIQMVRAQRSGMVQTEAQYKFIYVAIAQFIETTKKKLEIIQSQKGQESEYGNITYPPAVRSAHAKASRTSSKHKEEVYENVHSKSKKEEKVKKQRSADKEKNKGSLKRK
T2 sequence (P18031 whole entry, species assumed): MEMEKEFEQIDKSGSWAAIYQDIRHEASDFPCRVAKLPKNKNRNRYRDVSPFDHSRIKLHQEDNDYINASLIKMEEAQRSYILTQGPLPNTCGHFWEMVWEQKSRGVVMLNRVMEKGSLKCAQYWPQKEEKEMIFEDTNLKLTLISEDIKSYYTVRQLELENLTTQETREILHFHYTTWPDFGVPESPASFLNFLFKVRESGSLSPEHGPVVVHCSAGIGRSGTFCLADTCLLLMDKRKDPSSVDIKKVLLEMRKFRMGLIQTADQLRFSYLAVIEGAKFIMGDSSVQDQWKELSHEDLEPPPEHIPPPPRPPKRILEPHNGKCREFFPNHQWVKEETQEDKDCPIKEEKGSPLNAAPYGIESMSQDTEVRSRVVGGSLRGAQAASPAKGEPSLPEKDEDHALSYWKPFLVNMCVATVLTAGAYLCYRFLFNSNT

Molecule: CC1=C(/C=C/C(C)=C/C=C/C(C)=C/C(=O)O)C(C)(C)CCC1 [ATRA, All-trans-retinoic acid]
- cell cycle of NB4 cells [1]: arrested at GI phase
- NBT-positive (differentiated) U937 cells [2, 11]: 72% and 73%
- NB4 differentiation by short exposure versus long term exposure ([3]; ATRA): modest
- NBT-positive (differentiated) HL-60 cells [4, 11]: 90%

Molecule: IL-2: recombinant IL-2 (Proleukin, Chiron)
- Renca tumor growth inhibition [5]: little effects; also recorded: failed to inhibit Renca tumor growth
- increase of tumor-infiltrating Mφ (F4/80+) [6]: comparable levels

Molecule: O.O.O.O=C([O-])[C@H]([O-])[C@@H]([O-])C(=O)[O-].O=C([O-])[C@H]([O-])[C@@H]([O-])C(=O)[O-].[K+].[K+].[Sb+3].[Sb+3] [potassium antimonyl tartrate]
- IL-3-induced proliferation of Baf3 cells [7]: failed to enhance
- toxicity against Baf3 cells [7]: marked toxicity
- inhibition of SHP-1 [8]: no detectable inhibition
- IL-3-induced Stat5 phosphorylation [9]: failed to enhance IL-3-induced Stat5 phosphorylation
- inhibition of PTP1B [10]: no detectable inhibition

Molecule: GM-CSF: recombinant human granulocyte/macrophage colony stimulating factor
- maximal increase of NBT-positive U937 cells ([2]; GM-CSF alone 25 ng/ml): 8-10%
- effect on NB-4 cell differentiation ([3]; GM-CSF alone): no detectable effect
- maximal increase of NBT-positive HL-60 cells ([4]; GM-CSF alone 25 ng/ml): 8-10%
